Experimental data as given in US9422254B2, “Methoxyacrylate-based fungicide and methods for preparing and using the same” (priority 2008, dated 2016).

What was measured:
[1] = system: Aspergillus; assay: In vitro inhibition, pathogens from tropical plants; type: cell-based
Description: (§1) 5 wt % formulation of the active compound of Formula (I) was prepared into a solution (300 mg/L). To a sterilized Erlenmeyer flask, 2 mL of the solution and 18 mL of PDA culture medium (50° C.) were added. The mixture was shaken uniformly and dumped into two dishes whose diameter was 9 cm to yield two toxic PDA culture mediums having a concentration of 30 mg/L. Various cultured pathogens were punched at the edge of colony by a puncher having a diameter of 5 mm respectively, and the obtained pieces were transferred to the center of the toxic PDA culture medium by an inoculating needle and cultured in an incubator at 25° C. Repeat the above steps. According to the growth status of CK colony, the colony diameter of pathogens was measured by crossing method with a caliper and thereby a corrected inhibition percentage was calculated.
(§2) For each colony, diameter was measured twice by crossing method and the average was practicable. The colony growth inhibition rate was calculated as follows: Colony growth inhibition rate %=(diameter of CK colony−diameter of target colony)×100/diameter of CK colony
(§3) Following the above method, as targets 17 pathogens originated from tropical plants were tested. The pathogens were Rhizopus sp., Aspergillus, Colletotrichum gloeosporioides Penz, Banana Fusarium wilt, Colletouichum coccodes, Hughas, B. heveas, Cucumber mosaic virusstrain banana, Banana Sigatoka Leaf Spot Disease, Colletotrichum gloeosporioides, Colletotrichum musae (Berk & Curt) Arx, Botryodiplodia theobromae, Cladosporium cucumerinum Ellis et Arthur, Periconia hevenae, Colletotrichum gloeosporioides, B. cinerea, Diplodia natalensis, and Curvularia.

[2] = system: Colletotrichum gloeosporioides (second entry, r74); assay: as above; type: cell-based
Description: as §1, §2, §3

[3] = system: Colletotrichum gloeosporioides (first entry, r49); assay: as above; type: cell-based
Description: as §1, §2, §3

[4] = system: Botryodiplodia theobromae; assay: as above; type: cell-based; details: Lasiodiplodia theobromae
Description: as §1, §2, §3

[5] = system: Diplodia natalensis; assay: as above; type: cell-based
Description: as §1, §2, §3

[6] = system: Banana Sigatoka Leaf Spot Disease; assay: as above; type: cell-based
Description: as §1, §2, §3

[7] = system: Colletouichum coccodes. Hughas; assay: as above; type: cell-based
Description: as §1, §2, §3

[8] = system: B. heveas; assay: as above; type: cell-based
Description: as §1, §2, §3

[9] = system: Colletotrichum gloeosporioides Penz; assay: as above; type: cell-based
Description: as §1, §2, §3

[10] = system: Periconia hevenae; assay: as above; type: cell-based
Description: as §1, §2, §3

[11] = system: Cladosporium cucumerinum Ellis et Arthur; assay: as above; type: cell-based
Description: as §1, §2, §3

[12] = system: Cucumber brown spot (strain SDHGHB060509); assay: In vivo micro-screening assay
Excerpt: 3. In Vivo Micro-Screening Assay

[13] = system: Pseudoperonospora cubensis; assay: Fungicidal activity on potted cucumber, downy mildew; type: in vivo
Description: 1. Fungicidal Activity Assay on Potted Plants at Room Temperature
Take cucumber downy mildew and powdery mildew as examples, the assay were carried out as follows:
1) Pseudoperonospora cubensis: Pathogen of Cucumber Downy Mildew
Two cucumber seedlings (the growing point had been removed) having the same growth status and in the true leaf stage were collected, sprayed with the compound of Formula (I), and dried naturally for 24 hrs for inoculation. Fresh cucumber leaves infected by downy mildew were collected, and sporangium on the back was rinsed with distilled water (about 10° C.) dipped with a brush. The obtained sporangium was prepared into a suspension (2-3×10^5 cells/mL). The suspension was sprayed uniformly with an inoculation sprayer (0.1 MPa) to the naturally-dried cucumber seedlings. Subsequently, the seedlings were cultured in an artificial climate chamber. The relative humidity was maintained at 100%, with temperature of between 15 and 20° C. 24 hrs later, the relative humidity was maintained at 90%, with temperature of between 15 and 24° C. 5 days later, compared with the control, the disease of the cucumber seedlings was graded. Based on the resultant disease index, the efficacy was calculated.
The grading standard follows “Guidelines on efficacy evaluation of pesticides”, and the efficacy is calculated on the basis of the disease index.

[14] = 0.1 mg/L, read-out: Inhibition rate (%)
[15] = 1 mg/L, read-out: Inhibition rate (%)
[16] = 5 mg/L, read-out: Inhibition rate (%)
[17] = 10 mg/L, read-out: Inhibition rate (%)
[18] = 25 mg/L, read-out: Inhibition rate (%)
[19] = 50 mg/L, read-out: Inhibition rate (%)
[20] = 20 mg/L, read-out: Inhibition rate (%)
[21] = 15 mg/L, read-out: Inhibition rate (%)
[22] = Pseudoperonospora cubensis, secondary screening

## CO/C=C(/C(=O)OC)c1ccccc1CSc1nc2cc(OC)ccc2s1 [Compound of Formula (I), (E)-methyl 3-methoxy-2-(2-((5-methoxy-benzothiazol-2-ylthio)methyl)phenyl)acrylate]
[1]
  EC50: 5.03 mg/L
[1]; [14]
  inhibition at 0.1 µg/mL: 10.6%
[1]; [15]
  inhibition at 1 µg/mL: 27.4%
[1]; [16]
  inhibition at 5 µg/mL: 47.8%
[1]; [17]
  inhibition at 10 µg/mL: 58.4%
[1]; [18]
  inhibition at 25 µg/mL: 71.4%
[1]; [19]
  inhibition at 50 µg/mL: 86.1%
[2]
  EC50: 6.92 mg/L
[2]; [14]
  inhibition at 0.1 µg/mL: 7.12%
[2]; [15]
  inhibition at 1 µg/mL: 19.3%
[2]; [16]
  inhibition at 5 µg/mL: 33.8%
[2]; [17]
  inhibition at 10 µg/mL: 55.2%
[2]; [20]
  inhibition at 20 µg/mL: 87.2%
[3]
  EC50: 1.97 mg/L
[3]; [14]
  inhibition at 0.1 µg/mL: 18.2%
[3]; [15]
  inhibition at 1 µg/mL: 42.4%
[3]; [16]
  inhibition at 5 µg/mL: 55.9%
[3]; [17]
  inhibition at 10 µg/mL: 69.4%
[3]; [20]
  inhibition at 20 µg/mL: 83.2%
[4]
  EC50: 3.7 mg/L
[4]; 0.5 mg/L, read-out: Inhibition rate (%)
  inhibition at 0.5 µg/mL: 14.6%
[4]; [15]
  inhibition at 1 µg/mL: 31.7%
[4]; [16]
  inhibition at 5 µg/mL: 51.6%
[4]; [17]
  inhibition at 10 µg/mL: 65.8%
[4]; [20]
  inhibition at 20 µg/mL: 84%
[5]
  EC50: 1.7 mg/L
[5]; [14]
  inhibition at 0.1 µg/mL: 20.7%
[5]; [15]
  inhibition at 1 µg/mL: 40.2%
[5]; [16]
  inhibition at 5 µg/mL: 60.7%
[5]; [17]
  inhibition at 10 µg/mL: 73.7%
[5]; [20]
  inhibition at 20 µg/mL: 82.3%
[6]
  EC50: 1.5 mg/L
[6]; [14]
  inhibition at 0.1 µg/mL: 17.2%
[6]; [15]
  inhibition at 1 µg/mL: 43.5%
[6]; [16]
  inhibition at 5 µg/mL: 63.7%
[6]; [17]
  inhibition at 10 µg/mL: 77.9%
[6]; [20]
  inhibition at 20 µg/mL: 85.8%
[7]
  EC50: 7.13 mg/L
[7]; [14]
  inhibition at 0.1 µg/mL: 10.1%
[7]; 2 mg/L, read-out: Inhibition rate (%)
  inhibition at 2 µg/mL: 22.3%
[7]; [16]
  inhibition at 5 µg/mL: 42.1%
[7]; [21]
  inhibition at 15 µg/mL: 61.3%
[7]; [18]
  inhibition at 25 µg/mL: 83.5%
[8]
  EC50: 1.99 mg/L
[8]; [14]
  inhibition at 0.1 µg/mL: 9.09%
[8]; [15]
  inhibition at 1 µg/mL: 43.9%
[8]; [16]
  inhibition at 5 µg/mL: 61.4%
[8]; [17]
  inhibition at 10 µg/mL: 70.5%
[8]; [21]
  inhibition at 15 µg/mL: 81.4%
[9]
  EC50: 4.63 mg/L
[9]; [14]
  inhibition at 0.1 µg/mL: 16.7%
[9]; [15]
  inhibition at 1 µg/mL: 31.1%
[9]; [16]
  inhibition at 5 µg/mL: 50.2%
[9]; [17]
  inhibition at 10 µg/mL: 54.9%
[9]; [18]
  inhibition at 25 µg/mL: 69.3%
[9]; [19]
  inhibition at 50 µg/mL: 80.9%
[10]
  EC50: 0.378 mg/L
[10]; [14]
  inhibition at 0.1 µg/mL: 33.2%
[10]; [15]
  inhibition at 1 µg/mL: 66.4%
[10]; [16]
  inhibition at 5 µg/mL: 74.2%
[10]; [17]
  inhibition at 10 µg/mL: 77.6%
[10]; [21]
  inhibition at 15 µg/mL: 81.7%
[11]
  EC50: 4.84 mg/L
[11]; [15]
  inhibition at 1 µg/mL: 6.77%
[11]; 2.5 mg/L, read-out: Inhibition rate (%)
  inhibition at 2.5 µg/mL: 28.3%
[11]; [16]
  inhibition at 5 µg/mL: 55%
[11]; [17]
  inhibition at 10 µg/mL: 72.1%
[11]; [20]
  inhibition at 20 µg/mL: 84.9%
[12]
  prevention and treatment effect: good prevention and treatment effect
[12]; 100 mg/L
  Disease index: 6.11
  Efficacy (%): 85.00%
[12]; 500 mg/L
  Disease index: 4.44
  Efficacy (%): 89.10%
[13]; 3.125 mg/L, secondary screening
  Efficacy (%): 69.92%
[13]; 6.25 mg/L, secondary screening
  Efficacy (%): 82.89%
[13]; 12.5 mg/L, Table 1
  Efficacy (%): 87.34%
[13]; 12.5 mg/L, secondary screening
  Efficacy (%): 91.50%
[13]; 25 mg/L, Table 1
  Efficacy (%): 94.16%
[13]; 25 mg/L, secondary screening
  Efficacy (%): 98.15%
[13]; 50 mg/L, Table 1
  Efficacy (%): 100%
[13]; 50 mg/L, secondary screening
  Efficacy (%): 100%
[13]; 100 mg/L, Table 1
  Efficacy (%): 100%
[13]; 200 mg/L, Table 1
  Efficacy (%): 100%
[13]; [22]
  EC50: 1.52 mg/L
  EC90: 9.76 mg/L
[13]; downy mildew
  preventive effect: good preventive effect
